Assay type in all cases: cell-based
One experiment deals with Serr. Mar. IMM 16. Kind of experiment: In vitro minimal inhibitory concentration, Serr. Mar. IMM 16.
A further experiment deals with Pseudomonas UI 18. Kind of experiment: In vitro minimal inhibitory concentration, Pseudomonas UI 18. To be noted: UI18.
In another experiment the test system is Entero Cloac. IM 11. Kind of experiment: In vitro minimal inhibitory concentration, Entero Cloac. IM 11.
Another experiment deals with E. Coli. Brig. Kind of experiment: In vitro minimal inhibitory concentration, E. Coli. Brig. To be noted: Escherichia coli.
In the next experiment the test system is Pseudomonas #28. Kind of experiment: In vitro minimal inhibitory concentration, Pseudomonas #28. To be noted: Pseudomonas #28; in vitro; read-out: Minimal Inhibitory Concentration.
The subject of a further experiment is Staph S 18713. Kind of experiment: In vitro minimal inhibitory concentration, Staph S 18713.
Another experiment relates to Prot Vulg. Kind of experiment: In vitro minimal inhibitory concentration, Prot Vulg.
The test system of another experiment is Staph UC76. Description: In vitro minimal inhibitory concentration, Staph UC76.
The test system of the next experiment is Pseudomonas BRK 12-4-4. Kind of experiment: In vitro minimal inhibitory concentration, Pseudomonas BRK 12-4-4. To be noted: BRK1244.
The subject of a further experiment is Strep. fec. MGH 2. Kind of experiment: In vitro minimal inhibitory concentration, Strep. fec. MGH 2.
The next experiment relates to Klebs. Pneum. MGH 2. Description: In vitro minimal inhibitory concentration, Klebs. Pneum. MGH 2.
The next experiment has as its system E. Coli. Vogel. Description: In vitro minimal inhibitory concentration, E. Coli. Vogel. To be noted: Escherichia coli.

Values after ≈ are worked out from the molar mass of the structure shown. Some results are limits rather than exact numbers.

`CC(=O)N1CCC[C@H]1C(=O)Nc1ccc(-c2ccc(C(=O)N[C@@H](C(=O)NC3C(=O)N4C(C(=O)O)=C(CSc5nnnn5C)CSC34)c3ccccc3)c(=O)[nH]2)cc1` (stereo partly drawn) [Example 2, N-[6-[4-(N-Acetyl-L-prolylamino)phenyl]-1,2-dihydro-2-oxonicotinyl]-7-[D-2-amino-2-phenylacetamido]-3-[[(1-methyl-1H-tetrazol-5-yl)thio]methyl]-3-cephem-4-carboxylic acid]: the MIC was 12.5 µg/mL (≈ 15.4 µM) with Serr. Mar. IMM 16; 12.5 µg/mL (≈ 15.4 µM) against Pseudomonas UI 18; 6.3 µg/mL (≈ 7.75 µM) in the experiment with Entero Cloac. IM 11; 6.3 µg/mL (≈ 7.75 µM) against E. Coli. Brig; 12.5 µg/mL (≈ 15.4 µM) in the experiment with Pseudomonas #28; 3.1 µg/mL (≈ 3.81 µM) against Staph S 18713. For the same molecule, the MIC came to 25 µg/mL (≈ 30.8 µM) against Prot Vulg.; 0.8 µg/mL (≈ 0.984 µM) against Staph UC76; 25 µg/mL (≈ 30.8 µM) in the experiment with Pseudomonas BRK 12-4-4; 25 µg/mL (≈ 30.8 µM) with Strep. fec. MGH 2; 1.6 µg/mL (≈ 1.97 µM) against Klebs. Pneum. MGH 2; 1.6 µg/mL (≈ 1.97 µM) in the experiment on E. Coli. Vogel.
For `CC(=O)N[C@H](C)C(=O)Nc1ccc(-c2ccc(C(=O)N[C@@H](C(=O)NC3C(=O)N4C(C(=O)O)=C(CSc5nnnn5C)CSC34)c3ccc(O)cc3)c(=O)[nH]2)cc1` (stereo partly drawn) [Example 25, N-[6-[4(N-Acetyl-D-alanylamino)phenyl]-1,2-dihydro-2-oxonicotinyl]-7-[D-2-amino-2-(4-hydroxyphenyl)acetamido]-3-[[(1-methyl-1H-tetrazol-5-yl)thio]methyl]-3-cephem-4-carboxylic acid], the MIC in the experiment with Serr. Mar. IMM 16 was determined as 12.5 µg/mL (≈ 15.6 µM); with Pseudomonas UI 18, 3.1 µg/mL (≈ 3.86 µM); in the experiment with Entero Cloac. IM 11 it was 1.6 µg/mL (≈ 1.99 µM); in the experiment with E. Coli. Brig it was 3.1 µg/mL (≈ 3.86 µM); in the experiment with Pseudomonas #28, 3.1 µg/mL (≈ 3.86 µM); in the experiment on Staph S 18713, 6.3 µg/mL (≈ 7.85 µM). In addition, the MIC in the experiment with Prot Vulg. came to 6.3 µg/mL (≈ 7.85 µM); in the experiment with Staph UC76, 1.6 µg/mL (≈ 1.99 µM); in the experiment with Pseudomonas BRK 12-4-4 it was 3.1 µg/mL (≈ 3.86 µM); in the experiment with Strep. fec. MGH 2, 12.5 µg/mL (≈ 15.6 µM); against Klebs. Pneum. MGH 2, 1.6 µg/mL (≈ 1.99 µM); in the experiment with E. Coli. Vogel, 0.8 µg/mL (≈ 0.996 µM).
For the molecule `CC(=O)NC(C)C(=O)Nc1ccc(-c2ccc(C(=O)N[C@@H](C(=O)NC3C(=O)N4C(C(=O)O)=C(CSc5nnc(C)s5)CSC34)c3ccccc3)c(=O)[nH]2)cc1` (mixture of isomers) [Example 22, N-[6-[4-(N-Acetyl-DL-alanylamino)phenyl]-1,2-dihydro-2-oxonicotinyl]-7-[D-2-amino-2-phenylacetamido]-3-[([4-methyl-1,3,4-thiadiazol-2-yl]thio)methyl]-3-cephem-4-carboxylic acid], the MIC was 25 µg/mL against Serr. Mar. IMM 16; 12.5 µg/mL against Pseudomonas UI 18; 12.5 µg/mL against Entero Cloac. IM 11; 6.3 µg/mL in the experiment on E. Coli. Brig; 12.5 µg/mL with Pseudomonas #28; 6.3 µg/mL against Staph S 18713. For the same molecule, the MIC was found to be 12.5 µg/mL with Prot Vulg.; 0.4 µg/mL against Staph UC76; 12.5 µg/mL in the experiment with Pseudomonas BRK 12-4-4; 12.5 µg/mL in the experiment with Strep. fec. MGH 2; 3.1 µg/mL in the experiment on Klebs. Pneum. MGH 2; 1.6 µg/mL in the experiment with E. Coli. Vogel.
In the case of `CC(=O)NCCCC[C@H](NC(C)=O)C(=O)Nc1ccc(-c2ccc(C(=O)N[C@@H](C(=O)NC3C(=O)N4C(C(=O)O)=C(COC(C)=O)CSC34)c3ccccc3)c(=O)[nH]2)cc1` (stereo partly drawn) [Example 35, N-[6-[4-(N,N'-Diacetyl-L-lysylamino)phenyl]-1,2-dihydro-2-oxonicotinyl]-7-[D-2-amino-2-phenylacetamido]-3-acetoxymethyl-3-cephem-4-carboxylic acid], the MIC against Serr. Mar. IMM 16 was more than 50 µg/mL; with Pseudomonas UI 18, 6.3 µg/mL (≈ 7.59 µM); in the experiment with Entero Cloac. IM 11, 12.5 µg/mL (≈ 15.1 µM); in the experiment with E. Coli. Brig, 25 µg/mL (≈ 30.1 µM); with Pseudomonas #28, 12.5 µg/mL (≈ 15.1 µM); against Staph S 18713 it was 6.3 µg/mL (≈ 7.59 µM). The MIC is more than 50 µg/mL against Prot Vulg.; 3.1 µg/mL (≈ 3.74 µM) against Staph UC76; 12.5 µg/mL (≈ 15.1 µM) against Pseudomonas BRK 12-4-4; 25 µg/mL (≈ 30.1 µM) against Strep. fec. MGH 2; 12.5 µg/mL (≈ 15.1 µM) in the experiment on Klebs. Pneum. MGH 2; 6.3 µg/mL (≈ 7.59 µM) in the experiment on E. Coli. Vogel.
On to `CC(=O)NC(C)C(=O)Nc1ccc(-c2ccc(C(=O)N[C@@H](C(=O)NC3C(=O)N4C(C(=O)O)=C(CSc5nnnn5C)CSC34)c3ccccc3)c(=O)[nH]2)cc1` (mixture of isomers) [Example 18, N-[6-[4-(N-Acetyl-DL-alanylamino)phenyl]-1,2-dihydro-3-oxonicotinyl]-7-[D-2-amino-2-phenylacetamido]-3-[[(1-methyl-1H-tetrazol-5-yl)thio]methyl]-3-cephem-4-carboxylic acid], for which the MIC with Serr. Mar. IMM 16 was determined as 12.5 µg/mL; against Pseudomonas UI 18, 6.3 µg/mL; with Entero Cloac. IM 11, 6.3 µg/mL; in the experiment on E. Coli. Brig, 3.1 µg/mL; with Pseudomonas #28, 6.3 µg/mL; with Staph S 18713, 3.1 µg/mL. The MIC in the experiment with Prot Vulg. came out at 25 µg/mL; against Staph UC76 it was 0.4 µg/mL; with Pseudomonas BRK 12-4-4 it was 12.5 µg/mL; against Strep. fec. MGH 2, 25 µg/mL; in the experiment with Klebs. Pneum. MGH 2, 0.8 µg/mL; against E. Coli. Vogel, 0.4 µg/mL.
In the case of `CC(=O)N[C@H](CC(N)=O)C(=O)Nc1ccc(-c2ccc(C(=O)N[C@@H](C(=O)NC3C(=O)N4C(C(=O)O)=C(CSc5nnnn5C)CSC34)c3ccccc3)c(=O)[nH]2)cc1` (stereo partly drawn) [Example 23, N-[6-[4-(N-Acetyl-D-asparaginylamino)phenyl]-1,2-dihydro-2-oxonicotinyl]-7-[D-2-amino-2-phenylacetamido]-3-[[(1-methyl-1H-tetrazol-5-yl)thio]methyl]-3-cephem-4-carboxylic acid], the MIC in the experiment with Serr. Mar. IMM 16 was determined as 25 µg/mL (≈ 30.1 µM); in the experiment with Pseudomonas UI 18 it was 6.3 µg/mL (≈ 7.59 µM); against Entero Cloac. IM 11, 6.3 µg/mL (≈ 7.59 µM); in the experiment on E. Coli. Brig it was 3.1 µg/mL (≈ 3.74 µM); in the experiment with Pseudomonas #28 it was 12.5 µg/mL (≈ 15.1 µM); against Staph S 18713, 6.3 µg/mL (≈ 7.59 µM). In addition, the MIC with Prot Vulg. is 12.5 µg/mL (≈ 15.1 µM); in the experiment on Staph UC76, 0.8 µg/mL (≈ 0.964 µM); in the experiment on Pseudomonas BRK 12-4-4, 6.3 µg/mL (≈ 7.59 µM); against Strep. fec. MGH 2 it was 25 µg/mL (≈ 30.1 µM); against Klebs. Pneum. MGH 2, 1.6 µg/mL (≈ 1.93 µM); with E. Coli. Vogel, 0.8 µg/mL (≈ 0.964 µM).
Take `CC(=O)OCC1=C(C(=O)O)N2C(=O)C(NC(=O)[C@H](NC(=O)c3ccc(-c4ccc(NC(=O)[C@@H]5CC(OC(C)=O)CN5C(C)=O)cc4)[nH]c3=O)c3ccccc3)C2SC1` (stereo partly drawn) [Example 32, N-[6-[4-[N-Acetyl-4-(acetyloxy)-L-prolylamino]phenyl]-1,2-dihydro-2-oxoniotinyl]-7-[D-2-amino-2-phenylacetamido]-3-acetoxymethyl-3-cephem-4-carboxylic acid]: the MIC was more than 50 µg/mL against Serr. Mar. IMM 16; 12.5 µg/mL (≈ 15.3 µM) in the experiment on Pseudomonas UI 18; 25 µg/mL (≈ 30.7 µM) against Entero Cloac. IM 11; 25 µg/mL (≈ 30.7 µM) in the experiment with E. Coli. Brig; 12.5 µg/mL (≈ 15.3 µM) in the experiment on Pseudomonas #28; 6.3 µg/mL (≈ 7.73 µM) with Staph S 18713. The MIC in the experiment with Prot Vulg. stood at 25 µg/mL (≈ 30.7 µM); in the experiment on Staph UC76 it was 1.6 µg/mL (≈ 1.96 µM); against Pseudomonas BRK 12-4-4, 25 µg/mL (≈ 30.7 µM); with Strep. fec. MGH 2, 25 µg/mL (≈ 30.7 µM); in the experiment with Klebs. Pneum. MGH 2, 12.5 µg/mL (≈ 15.3 µM); against E. Coli. Vogel, 6.3 µg/mL (≈ 7.73 µM).

(Values after US4311698A, “Aminoacid derivatives of cephalosporin compounds” (priority 1980, dated 1982).)
